Data reported in patent US20240108745A1, “BIOACTIVE SUBSTANCE CONJUGATE, PREPARATION METHOD THEREFOR AND USE THEREOF” (MEDILINK THERAPEUTICS (SUZHOU) CO., LTD., priority 2021, published 2024).

Assay: Tumor tissue distribution of antibody drug conjugates in HT29 xenografts (A1.9 and ADC in plasma/serum and tumor)
Type: in vivo, BALB/c Nude mice
Details: BALB/c Nude, mouse, intravenous, 10 mg/kg, HT29 model, read-out: distribution difference of A1.9 in tumors compared with plasma
Protocol: Human colon cancer HT29 cells were purchased from ATCC. HT29 cells were adherently cultured in a […] culture dish, and the culture conditions were 1640 media containing 10% fetal bovine serum, and the cells were cultured at 37° C. in an incubator containing 5% CO2. When cells were in exponential growth phase, cells were digested with trypsin, harvested, counted, and inoculated.
After adapting to the laboratory environment for 2-5 days, BALB/c Nude mice were subcutaneously inoculated with HT29 cells in the right rib, with an inoculation amount of 5×10^6 cells/mouse and an inoculation volume of 0.2 ml (containing 50% Matrigel). The experiment was carried out when the tumor grew to about 200-300 mm^3.
The tumor tissue pieces were sheared into small size on ice, weighed and transferred to a grinding tube. The tissue homogenate was prepared by grinding them with normal saline solution at 1:5 (w/v); tissue homogenate supernatant was prepared by centrifugation for 10 min at 2˜8° C. and 1800× g, and then stored at −15˜−25° C. for use. Before use, it was taken out and left at 15-25° C., naturally warmed to room temperature, and then used.
For the analysis method of A1.9, refer to Example 6.9. […]

In the case of CC[C@@]1(O)C(=O)OCc2c1cc1n(c2=O)Cc2c-1nc1cc3c(cc1c2CCCO)OCO3 [Example A1.9, (S)-7-ethyl-7-hydroxy-14-(3-hydroxypropyl)-10,13-dihydro-11H-[1,3]dioxolo[4,5-g]pyrano[3′,4′:6,7]indolizino[1,2-b]quinolin-8,11(7H)-dione], the Kp is reported as ≤ 18.
